≈ marks a conversion by molar mass, not a printed value.
What was measured:
[1] = test system: Streptococcus mutans; assay: Antibacterial activity against Streptococcus mutans; format: functional
[2] = test system: Enterococcus faecalis; assay: Antibacterial activity against Enterococcus faecalis ATCC29212 assessed as inhibition of visible growth incubated for 16 to 18 hrs by CLSI method; format: functional; settings: time 16-18 hrs, read-out: MIC100
[3] = test system: Staphylococcus aureus; assay: Antibacterial activity against methicillin-resistant Staphylococcus aureus clinical isolate M-11 assessed as inhibition of visible growth incubated for 16 to 18 hrs by CLSI method; format: functional; settings: time 16-18 hrs, read-out: MIC100
[4] = test system: Staphylococcus aureus; assay: Antibacterial activity against methicillin-resistant Staphylococcus aureus clinical isolate M-15 assessed as inhibition of visible growth incubated for 16 to 18 hrs by CLSI method; format: functional; settings: time 16-18 hrs, read-out: MIC100
[5] = test system: Staphylococcus aureus; assay: Antibacterial activity against methicillin-resistant Staphylococcus aureus clinical isolate M-16 assessed as inhibition of visible growth incubated for 16 to 18 hrs by CLSI method; format: functional; settings: time 16-18 hrs, read-out: MIC100
[6] = test system: Staphylococcus aureus; assay: Antibacterial activity against methicillin-resistant Staphylococcus aureus clinical isolate M-18 assessed as inhibition of visible growth incubated for 16 to 18 hrs by CLSI method; format: functional; settings: time 16-18 hrs, read-out: MIC100
[7] = test system: Staphylococcus aureus; assay: Antibacterial activity against methicillin-resistant Staphylococcus aureus clinical isolate M-19 assessed as inhibition of visible growth incubated for 16 to 18 hrs by CLSI method; format: functional; settings: time 16-18 hrs, read-out: MIC100
[8] = Hemolytic activity in sheep RBC assessed as hemolysis incubated for 1 hr; format: ADME, cell-based, Ovis aries, Erythrocyte; settings: sheep red blood cells (erythrocytes)
[9] = test system: Stenotrophomonas maltophilia; assay: Antibacterial activity against Stenotrophomonas maltophilia assessed as inhibition of visible growth incubated for 16 to 18 hrs by CLSI method; format: functional; settings: time 16-18 hrs, read-out: MIC100
[10] = test system: Staphylococcus aureus; assay: Antibacterial activity against methicillin-resistant Staphylococcus aureus clinical isolate M-14 assessed as inhibition of visible growth incubated for 16 to 18 hrs by CLSI method; format: functional; settings: time 16-18 hrs, read-out: MIC100
[11] = test system: Staphylococcus aureus; assay: Antibacterial activity against methicillin-resistant Staphylococcus aureus clinical isolate M-13 assessed as inhibition of visible growth incubated for 16 to 18 hrs by CLSI method; format: functional; settings: time 16-18 hrs, read-out: MIC100
[12] = test system: Bacillus subtilis; assay: Antibacterial activity against Bacillus subtilis assessed as inhibition of visible growth incubated for 16 to 18 hrs by CLSI method; format: functional; settings: time 16-18 hrs, read-out: MIC100
[13] = test system: Micrococcus luteus; assay: Antibacterial activity against Micrococcus luteus assessed as inhibition of visible growth incubated for 16 to 18 hrs by CLSI method; format: functional; settings: time 16-18 hrs, read-out: MIC100
[14] = test system: Staphylococcus aureus; assay: Antibacterial activity against methicillin-resistant Staphylococcus aureus clinical isolate M-12 assessed as inhibition of visible growth incubated for 16 to 18 hrs by CLSI method; format: functional; settings: time 16-18 hrs, read-out: MIC100
[15] = test system: Staphylococcus aureus; assay: Antibacterial activity against Staphylococcus aureus ATCC29213 assessed as inhibition of visible growth incubated for 16 to 18 hrs by CLSI method; format: functional; settings: time 16-18 hrs, read-out: MIC100
[16] = test system: Escherichia coli; assay: Antibacterial activity against Escherichia coli ATCC25922 assessed as inhibition of visible growth incubated for 16 to 18 hrs by CLSI method; format: functional; settings: time 16-18 hrs, read-out: MIC100
[17] = test system: Salmonella enterica; assay: Antibacterial activity against Salmonella enterica 349812 assessed as inhibition of visible growth incubated for 16 to 18 hrs by CLSI method; format: functional; settings: time 16-18 hrs, read-out: MIC100
[18] = test system: Salmonella enterica; assay: Antibacterial activity against Salmonella enterica 8389 assessed as inhibition of visible growth incubated for 16 to 18 hrs by CLSI method; format: functional; settings: time 16-18 hrs, read-out: MIC100
[19] = Selectivity index, HC50 for hemolytic activity in sheep RBC to MIC for antibacterial activity against Staphylococcus aureus ATCC29213; format: toxicity; settings: sheep red blood cells (erythrocytes), read-out: Selectivity Index
[20] = test system: Staphylococcus aureus; assay: Antibacterial activity against methicillin-resistant Staphylococcus aureus clinical isolate M-17 assessed as inhibition of visible growth incubated for 16 to 18 hrs by CLSI method; format: functional; settings: time 16-18 hrs, read-out: MIC100
[21] = test system: Staphylococcus aureus; assay: Antibacterial activity against methicillin-resistant Staphylococcus aureus clinical isolate M-20 assessed as inhibition of visible growth incubated for 16 to 18 hrs by CLSI method; format: functional; settings: time 16-18 hrs, read-out: MIC100

| SMILES | MIC [2] | MIC [3] | MIC [4] | MIC [5] | MIC [6] | MIC [7] | HC50 at 1 h [8] | MIC [9] | MIC [10] | MIC [11] | MIC [12] | MIC [13] | MIC [14] | MIC [15] | MIC [16] | MIC [17] | MIC [18] | selectivity ratio [19] | MIC [20] | MIC [21] | other results |
| --- | --- | --- | --- | --- | --- | --- | --- | --- | --- | --- | --- | --- | --- | --- | --- | --- | --- | --- | --- | --- | --- |
| CC(C)(C)c1ccc(CCc2ccc(C(C)(C)C)c(O)c2)cc1O |  |  |  |  |  |  |  |  |  |  |  |  |  |  |  |  |  |  |  |  | MIC [1]: 8 mg/L (≈ 24.5 µM) |
| C=CCc1ccc(OCCC[N+](C)(C)CC(=O)NCC)c(-c2ccc(OCCC[N+](C)(C)CC(=O)NCC)c(CC=C)c2)c1.[Br-].[Br-] | 4 mg/L | 8 mg/L | 4 mg/L | 2 mg/L | 4 mg/L | 4 mg/L | 1130 µg/mL | 32 mg/L | 9 mg/L | 4 mg/L | 4 mg/L | 4 mg/L | 4 mg/L | 2 mg/L | 16 mg/L | 64 mg/L | 32 mg/L | 567 | 4 mg/L | 4 mg/L |  |
| C=CCc1ccc(O)c(-c2cc(CC=C)ccc2OCCC[N+](C)(C)CC(=O)N(CCCC)CCCC)c1.[Br-] | 2 mg/L | 4 mg/L | 2 mg/L | 2 mg/L | 2 mg/L | 1 mg/L | 764 µg/mL | 8 mg/L | 4 mg/L | 2 mg/L | 0.5 mg/L | 0.5 mg/L | 4 mg/L | 2 mg/L | 8 mg/L | 8 mg/L | 16 mg/L | 382 | 2 mg/L | 2 mg/L |  |
| C=CCc1ccc(O)c(-c2cc(CC=C)ccc2OCC[N+](C)(C)CC(=O)NCCCCC)c1.[Br-] | 16 mg/L | 16 mg/L | 8 mg/L | 8 mg/L | 8 mg/L | 8 mg/L | 645 µg/mL | 64 mg/L | 8 mg/L | 8 mg/L | 4 mg/L | 4 mg/L | 16 mg/L | 8 mg/L | 32 mg/L | 64 mg/L | 64 mg/L | 80.7 | 8 mg/L | 8 mg/L |  |
| C=CCc1ccc(OCCC[N+](C)(C)CC(=O)NCCCCCC)c(-c2ccc(OCCC[N+](C)(C)CC(=O)NCCCCCC)c(CC=C)c2)c1.[Br-].[Br-] | 4 mg/L | 4 mg/L | 4 mg/L | 4 mg/L | 4 mg/L | 4 mg/L | 1080 µg/mL | 8 mg/L | 4 mg/L | 4 mg/L | 2 mg/L | 2 mg/L | 4 mg/L | 4 mg/L | 8 mg/L | 4 mg/L | 2 mg/L | 269 | 4 mg/L | 4 mg/L |  |
| C=CCc1ccc(O)c(-c2cc(CC=C)ccc2OCCCC[N+](C)(C)CC(=O)NCCCCCC)c1.[Br-] | 4 mg/L | 8 mg/L | 8 mg/L | 4 mg/L | 4 mg/L | 8 mg/L | 698 µg/mL | 32 mg/L | 8 mg/L | 8 mg/L | 1 mg/L | 2 mg/L | 8 mg/L | 2 mg/L | 16 mg/L | 32 mg/L | 64 mg/L | 349 | 4 mg/L | 4 mg/L |  |
| C=CCc1ccc(OCC[N+](C)(C)CC(=O)NCCCC)c(-c2ccc(OCC[N+](C)(C)CC(=O)NCCCC)c(CC=C)c2)c1.[Br-].[Br-] | 8 mg/L | 4 mg/L | 8 mg/L | 8 mg/L | 4 mg/L | 4 mg/L | 832 µg/mL | 32 mg/L | 4 mg/L | 4 mg/L | 2 mg/L | 4 mg/L | 4 mg/L | 4 mg/L | 64 mg/L | 64 mg/L | 32 mg/L | 208 | 8 mg/L | 8 mg/L |  |
| C=CCc1ccc(OCC[N+](C)(C)CC(=O)NCCC)c(-c2ccc(OCC[N+](C)(C)CC(=O)NCCC)c(CC=C)c2)c1.[Br-].[Br-] | 8 mg/L | 8 mg/L | 4 mg/L | 4 mg/L | 8 mg/L | 8 mg/L | 703 µg/mL | 64 mg/L | 8 mg/L | 8 mg/L | 16 mg/L | 16 mg/L | 8 mg/L | 16 mg/L | 64 mg/L | 64 mg/L | 64 mg/L | 43.9 | 4 mg/L | 8 mg/L |  |
| C=CCc1ccc(O)c(-c2cc(CC=C)ccc2OCCCC[N+](C)(C)CC(=O)NCCCC)c1.[Br-] | 2 mg/L | 4 mg/L | 1 mg/L | 1 mg/L | 1 mg/L | 1 mg/L | 555 µg/mL | 8 mg/L | 2 mg/L | 2 mg/L | 0.5 mg/L | 0.5 mg/L | 2 mg/L | 2 mg/L | 8 mg/L | 16 mg/L | 16 mg/L | 277 | 2 mg/L | 1 mg/L |  |

Source: ChEMBL document CHEMBL4831516, “Development of Membrane-Active Honokiol/Magnolol Amphiphiles as Potent Antibacterial Agents against Methicillin-Resistant Staphylococcus aureus (MRSA)” (J Med Chem, 2021)
